Entries after “also recorded” stand apart in the source; their conditions may differ. Where no end group is shown, it is not given here.
Tests used:
[1] = tested on: CD3+ T cells and antigen presenting cells (APC); experiment: Fluorescent peptide binding to PBMCs from MS patients by flow cytometry; type: cell-based, human; details: fluorescenated peptides
Method: In some embodiments, the size (length—i.e. number of amino acids) of the peptide may matter for disease prevention capacity. […] In some embodiments, use of different length peptides may be advantageous in treatment of different diseases as each disease may be driven primarily by one cell type or another.
Peripheral blood mononuclear cells from MS patients were stained then gated on CD3^+ for T cells or on CD3^− for antigen presenting cells (APC) were analyzed for peptide binding levels. Different cells bind different peptides with different intensities as determined by flow cytometry. There were 24 subjects in each test.

[2] = tested on: C57BL/6 mice; experiment: EAE mouse model, daily clinical score; type: in vivo
Description: EAE was then induced and the mice started to show symptoms on day 10, which is standard for these mice under these conditions. This is further depicted in FIG. 11. On days 13, 20, and 27, the KGYY6 group of mice receive a boost of peptide, while the other group again received PBS via IV injection. […] By day 13, there was a statistically significant difference that lasted throughout the experiment. In FIG. 11—*—asterisks—denote p-value: *—one asterisk is <0.05; **—two asterisks is <0.01; ***—three asterisks is <0.001; and ****-four asterisks is <0.0001. This is a two-way ANOVA with Sidak's multiple comparisons test. Arrows in above lines in FIG. 11 represent days −3, −1, 13, 20, and 27, which correspond to days on which the mice received the KGYY6. Mice were disease scored daily in this study as described in more detail below. […]
All mice were monitored daily for disease and scored in the following manner: 0—no abnormalities; 0.5—clutching hind limbs; 1—limp tail or weak hind limbs and/or wobbly gait; 1.5—limp tail and clutching hind limbs; 2—limp tail and weak hind limbs and/or wobbly gait wherein the mouse supports itself and propels itself using hind limbs; 2.5—limp tail and weak hind limbs and/or wobbly gait wherein the mouse cannot support and propel itself using hind limbs, but the paws are moving. […]

[3] = tested on: ApoE−/− mice; experiment: Glucose tolerance testing in ApoE-/- mice; type: in vivo, mouse; details: n=14
[4] = tested on: NOD mice; experiment: Diabetes prevention in NOD mice treated with peptides; type: in vivo, mouse; details: for diabetes onset (blood glucose >250 mg/dl): NOD mice treated with different sizes of peptides, n=10
Method: (a) The amino acid sequence of mouse CD154 is depicted, with amino acids known to interact with CD40 shown in bold. A 15 amino acid sequence is highlighted in grey and aligned with the same motif in human CD154. A previously studied peptide is highlighted. (b) NOD mice were treated with different sizes of peptides, as indicated (n=10 in all groups). Mice were monitored for diabetes onset (blood glucose >250 mg/dl). Differences were significant by two-way ANOVA; p<0.0001.
FIG. 3 includes sub-parts FIGS. 3A and 3B. […] The percent of subjects that developed diabetes in the KGYY15 subjects was much lower, as compared with the RGD peptide and the scrambled peptide. KGYY15 diabetes prevention is sequence dependent, and several amino acid positions are critical for its function. (a) KGYY15-treated mice were compared with mice treated with a scrambled peptide or a peptide targeting the RGD region (sequences indicated above the graph). (b) KGYY15-treated mice were compared with mice treated with a 15-mer peptide series in which single amino acids, as indicated, were substituted for glycine. L137; Y144; T146; M147; N150; n=10 in all groups shown in (a) and (b), except for L137, where n=9. Differences were significant by two-way ANOVA; p<0.0001

[5] = tested on: NOD mice; experiment: Reversal of overt hyperglycemia in new onset diabetic NOD mice, daily KGYY15; type: in vivo, mouse
Method: FIG. 2, which includes FIG. 2A-2D, is based on a study of the use of KGYY15 to treat NOD mice. […] Immediately after diabetes onset (blood glucose >250 mg/dl; n=9), mice were treated daily with KGYY15 and blood glucose was monitored. […] FIG. 2C is a graph showing Islet insulitis scores in reversed and non-reversed mice: 0, no infiltration (black); 1, 25% infiltration (striped); 2, 50% infiltration (dark grey); 3, 75% infiltration (light grey); 4, 100% infiltration (white). FIG. 2D is a graph showing Islet insulin granulation scores: 0, less than 25% granulation; 1, 25-50% granulation; 2, 50-75% granulation; […], 75-100% granulated. Data is represented as the mean±SEM; ****p<0.0001 by two-tailed unpaired t test.

[6] = tested on: NOD mice; experiment: Immunogenicity: serum antibodies to KGYY15 or sCD154 by western blot; type: in vivo, mouse; details: 1 mg/kg weekly for 7 weeks
Method: (§1) NOD mice were injected weekly for 7 weeks with 1 mg/kg of KGYY15. In FIG. 4A, serum was collected from injected or control mice and used, followed by anti-mouse-IgG secondary antibody, in western blots for detection of KGYY15 peptide or soluble CD154 (sCD154; KGYY15 and sCD154 sizes are indicated with arrows). […] As a standard, KGYY15-biotin was run and detected with streptavidin-HRP. Experiment was done twice, pooling serum from 2 and 3 mice in each experiment, respectively. In FIGS. 4B and 4C, sorted splenic APC from KGYY15 treated mice were loaded with KGYY15 or not. T cells from KGYY15 treated mice were CFSE labelled then exposed to the autologous APC (+/− KGYY15) and incubated for 5 days. […] Representative histogram of CFSE dilution: Black line—T cells alone; Grey tinted—T cells+APC alone; Dotted line—T cells+APC loaded with KGYY15. Graph depicts cumulative data (n=5 in each group).

[7] = tested on: T cells from KGYY15 treated mice; experiment: T cell proliferation (CFSE dilution) with autologous APC loaded with KGYY15; type: cell-based, mouse; details: APC +/- KGYY15, 5 days, n=5
Method: as §1

[8] = tested on: T1D dogs; experiment: Longstanding T1D domestic dogs treated with i.v. infusions of dog 15-mer peptide; type: in vivo; details: before first infusion vs several weeks after initiation
Method: Four longstanding T1D domestic dogs were treated with i.v. infusions of dog 15-mer peptide, twice in the first week then weekly thereafter. Levels of fructosamine were measured before the first infusion and several weeks after initiation of treatment.

6-mer: fluorescenated version of the 6-mer peptide used to stain PBMCs from MS patients (AKKGYY; also: fluorescent label)
binding to T cells compared with APCs [1]: stained both T cells and APCs equally well

15-mer: fluorescenated version of the 15-mer peptide used to stain PBMCs from MS patients (VLRWAPKGYYTISSN; also: fluorescent label)
binding to T cells compared with APCs [1]: bound better to T cells than APCs

AKKGYY [KGYY6]
severity of EAE (disease course, clinical score) ([2]; i.v. pretreatment before EAE induction plus boosts, vs PBS control): significantly less severe; also recorded: ameliorates EAE; also recorded: significantly reduced the severity of the EAE symptoms | severity of EAE ([2]; no pretreatment, treatment delayed until visible disease symptoms): may significantly reduce the severity of EAE | glucose tolerance [3]: statistically significant improvement | insulin sensitivity [3]: statistically significant improvement; also recorded: may improve

VLQWAKKGYYTMKSN (VLQWAKKGYYTMKSK) [KGYY15]
diabetes onset (blood glucose >250 mg/dl) [4]: prevent the onset of T1D | diabetes onset (blood glucose >250 mg/dl) ([4]; listed as 15-mer CD154-derived peptide): prevents diabetes | percent of subjects that developed diabetes ([4]; NOD mice, 35 weeks, compared with RGD peptide and scrambled peptide): much lower | reversal of overt hyperglycemia ([5]; NOD mice treated daily after diabetes onset, n=9): reverses overt hyperglycemia | mice with reversed hyperglycemia ([5]; new onset diabetic mice): approximately 60% | antibody production to the peptide ([6]; serum western blot): no antibodies to the peptide had been generated; also recorded: does not elicit antibody production | immunogenicity ([6]; NOD mice, 1 mg/kg): does not appear to be immunogenic | T cell proliferation by CFSE dilution [7]: no proliferation was detected

VLRWA PKGYY TISSN (chain 1 VLRWAPKGYYTISSN; chain 2 VLRWAPKGYYTISSN) [Dog 15-mer peptide]
fructosamine levels [8]: significantly decreases fructosamine levels

Source: US20220031632A1, “NANOPARTICLE COMPOSITIONS AND USES THEREOF” (OP-T LLC, priority 2020, published 2022)
